Experiment: Degradation of VC in deionized water over time at different temperatures (FIG. 1)
Type: physicochemical
Excerpt: Vitamin C (VC), also known as L-ascorbic acid, is a main component of common food additives and cosmetics, and can serve as a vitamin supplement and an antioxidant in cosmetics. However, VC is very unstable in neutral or alkaline aqueous solutions.

O=C1O[C@H]([C@@H](O)CO)C(O)=C1O [VC, L-ascorbic acid]
degradation rate of VC (deionized water, 6 h, temperature higher than 50° C.): 80%
VC degrades (degradation) (initial concentration 0.27 mg/mL in deionized water, 25° C., after 12 h): 29%
